According to the NIST ThermoML archive (doi:10.1016/j.tca.2016.02.005):

Key:
[1] = refractive index (Na D-line) (dimensionless); conditions: 101.3 kPa, Liquid, Standard Abbe refractometry
[2] = 101.3 kPa, Liquid; for speed of sound: Frequency=3 MHz, Sing-around technique in a fixed-path interferometer; for mass density: Vibrating tube method
[3] = xn = mol fraction of the nth substance listed; conditions: 101.3 kPa, Liquid, x1 = 1; for speed of sound: Frequency=3 MHz, Sing-around technique in a fixed-path interferometer; for mass density: Vibrating tube method
[4] = refractive index (Na D-line) (dimensionless); xn = mol fraction of the nth substance listed; conditions: 101.3 kPa, Liquid, Standard Abbe refractometry, x1 = 1

CCn1cc[n+](C)c1.F[B-](F)(F)F [1-ethyl-3-methylimidazolium tetrafluoroborate]
Conditions | mass density, [2] [kg/m3] | refractive index, [1] | speed of sound, [2] [m/s]
298.15 K | 1277.6 | 1.4103 | 1622.9
308.15 K | 1269.9 | 1.4077 | 1599.5
318.15 K | 1262.1 | 1.4051 | 1576.5
328.15 K | 1254.6 | 1.4023 | 1553.8

CCn1cc[n+](C)c1.F[B-](F)(F)F [1-ethyl-3-methylimidazolium tetrafluoroborate] + COCCO
Conditions | mass density, [3] [kg/m3] | refractive index, [4] | speed of sound, [3] [m/s]
298.15 K | 1277.6 | 1.4103 | 1622.9
308.15 K | 1269.9 | 1.4077 | 1599.5
318.15 K | 1262.1 | 1.4051 | 1576.5
328.15 K | 1254.6 | 1.4023 | 1553.8

COCCO [2-methoxyethan-1-ol]
Conditions | mass density, [2] [kg/m3] | refractive index, [1] | speed of sound, [2] [m/s]
298.15 K | 960.9 | 1.4003 | 1345.8
308.15 K | 951.7 | 1.3961 | 1311.3
318.15 K | 942.7 | 1.3917 | 1276.4
328.15 K | 933.4 | 1.3876 | 1241.9
